Measured values published in US20240285649A1, “PROGESTOGEN FORMULATIONS FOR USE IN MODULATING A CYTOKINE STORM MEDIATOR” (Shenzhen Evergreen Therapeutics Co., Ltd, priority 2020, published 2024).

Experiments:
[1] = tested on: smoke exposure-induced COPD rats; assay: Pharmacodynamic study of 17-HPC inhalation in smoke exposure-induced COPD rats (lung function, BALF differential count, HE staining, body weight); type: in vivo, Wistar rats; details: for weight increase: at 24 weeks
Description: (§1) Seventy-two Wistar rats were randomly divided into the blank control group, model group, 17-HPC (0.5 mg/ml, 0.25 mg/ml and 0.1 mg/ml) groups, BUD (0.5 mg/ml and 0.1 mg/ml) groups, and combination treatment (0.5 mg/ml BUD+0.25 mg/ml 17-HPC and 0.1 mg/ml BUD+0.25 mg/ml 17-HPC) groups. Drug concentration is the nebulized solution concentration. Lung function (forced vital capacity) of rats was measured using the small animal spirometer, and differential count in the BALF was determined under the microscope. Serum and BALF cytokine (IL-6, IL-17, TNF-α and IL-β) levels were measured by ELISA. Inflammatory cell infiltration area and MLI in rat lung tissues were determined by HE staining.

[2] = tested on: IL-6, IL-17, TNF-α and IL-1β; assay: Serum and BALF cytokine levels by ELISA in COPD rats; type: in vivo, Wistar rats; details: aside from the low dose (0.1 mg/ml) 17-HPC group
Description: as §1, with “To examine the in vitro and in vivo efficacy of 17-HPC inhalation in chronic obstructive pulmonary disease (COPD) rats, a rat model of COPD was established by exposing Wistar rats to CS for 1 hour every day for a total of 180 days. Seventy-two” for “Seventy-two”

[3] = tested on: Sprague-Dawley rats; assay: Seven-day inhalation toxicity study in rats (GLP); type: in vivo
Description: A 7-day inhalation toxicity study in rats was conducted under GLP conditions. In this study, aerosolized 17-HPC was administered to Sprague-Dawley rats (10/sex/group) at 8, 24, and 72 mg/kg/day for 7 consecutive days. A control group of rats was dosed with aerosolized vehicle. Animals were observed daily for clinical signs. Body weight and food consumption were recorded at pretest, and then on Days 1, 4, and 7. In order to evaluate reversibility of 17-HPC treatment, a satellite rat group (5/sex/group) was dosed by inhalation at 72 mg/kg/day for 7 days, and then was sacrificed on Day 14. Except for the rats in the satellite group, all animals were sacrificed on Day 8. Hematology and biochemistry examinations were performed at the end of the study. Organ weight, gross pathology, and histopathology evaluations were performed.

[4] = PK of PR2005 formulations (oral gavage, capsule, IM) in female dogs, relative bioavailability vs MAKENA; type: in vivo; details: 750 mg compared to 250 mg
Text: This study determined the pharmacokinetic parameters of the test drug PR2005 (also referred to herein as 17-HPC) in different formulations after oral gavage or capsule administrations in dogs. This study further determined the relative bioavailability of the test drug PR2005 in each formulation, compared to intramuscular injection solution (MAKENA®).
PK parameters were estimated, including maximum plasma drug concentration (Cmax), time to reach Cmax (Tmax), time delay in absorption process (Tlag), area under the plasma concentration-time curve from time 0 to the last quantifiable data point (AUClast), area under the plasma concentration-time curve from time zero to infinity (AUCinf), plasma half-life (t1/2) and apparent plasma clearance (CL/F), apparent volume of distribution (Vz/F). All these parameters were computed using standard non-compartmental methods of analysis. […] Plasma PR2005 PK data was analyzed in Phoenix WinNonLin 8.1 (Certara USA, Inc.).
Log-transformed values of AUCinf were analyzed using a linear mixed-effects model. […] After back transformation from the log scale, estimates of geometric LSM and 90% CI for the ratio of means were calculated. Relative bioavailability (Fr %) was calculated as the ratio of dose normalized geometric least square mean (LSM) for test formulation and IM solution: […]

[5] = target: ABCB1 efflux transporters (Homo sapiens, UniProt P08183); details: literature (Bloise et al. 2016); cited from earlier work
Sequence of ABCB1 efflux transporters (P08183 whole entry): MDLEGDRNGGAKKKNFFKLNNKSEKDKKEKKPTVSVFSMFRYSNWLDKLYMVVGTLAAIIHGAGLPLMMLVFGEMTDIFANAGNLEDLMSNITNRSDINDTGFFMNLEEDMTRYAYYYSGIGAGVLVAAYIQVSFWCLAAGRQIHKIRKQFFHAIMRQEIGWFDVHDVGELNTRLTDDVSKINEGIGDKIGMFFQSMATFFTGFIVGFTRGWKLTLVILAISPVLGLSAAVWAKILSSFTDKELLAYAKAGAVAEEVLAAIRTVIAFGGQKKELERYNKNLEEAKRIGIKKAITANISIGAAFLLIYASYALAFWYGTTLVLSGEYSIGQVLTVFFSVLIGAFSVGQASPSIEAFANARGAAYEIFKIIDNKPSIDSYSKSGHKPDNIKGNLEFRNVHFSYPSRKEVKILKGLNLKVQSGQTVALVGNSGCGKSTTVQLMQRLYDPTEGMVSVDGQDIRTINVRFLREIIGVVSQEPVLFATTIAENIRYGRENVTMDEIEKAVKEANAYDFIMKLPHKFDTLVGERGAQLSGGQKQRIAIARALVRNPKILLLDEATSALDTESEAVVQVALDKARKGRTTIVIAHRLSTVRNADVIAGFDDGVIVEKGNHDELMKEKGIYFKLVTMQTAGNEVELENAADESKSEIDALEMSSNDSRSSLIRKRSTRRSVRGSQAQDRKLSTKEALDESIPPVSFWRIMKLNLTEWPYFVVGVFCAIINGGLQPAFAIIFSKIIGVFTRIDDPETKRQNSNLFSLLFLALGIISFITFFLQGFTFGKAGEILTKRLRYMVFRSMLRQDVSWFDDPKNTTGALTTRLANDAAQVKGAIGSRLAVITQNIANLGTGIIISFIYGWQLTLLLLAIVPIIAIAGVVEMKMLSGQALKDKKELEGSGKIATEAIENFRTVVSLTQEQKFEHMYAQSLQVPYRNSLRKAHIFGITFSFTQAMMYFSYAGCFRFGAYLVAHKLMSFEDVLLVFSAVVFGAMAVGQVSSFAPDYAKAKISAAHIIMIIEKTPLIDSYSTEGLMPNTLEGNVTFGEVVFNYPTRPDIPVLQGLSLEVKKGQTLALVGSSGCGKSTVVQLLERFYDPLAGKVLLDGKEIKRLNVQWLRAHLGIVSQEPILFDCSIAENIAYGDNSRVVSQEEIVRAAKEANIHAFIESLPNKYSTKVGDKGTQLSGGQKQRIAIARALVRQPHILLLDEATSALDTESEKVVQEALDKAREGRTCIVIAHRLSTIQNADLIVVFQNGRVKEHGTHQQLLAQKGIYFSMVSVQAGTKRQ

SMILES	weight increase ([1]; vs model group)	MLI ([1]; lung tissue, HE staining)	inflammatory cell infiltration in lung tissues (HE staining) ([1]; nebulized inhalation)	percentage of neutrophils in rat BALF ([1]; nebulized inhalation)	FEV0.2/FVC % ([1]; nebulized inhalation, vs model group, after 24 weeks of CS exposure)	TNF-α, IL-1β, IL-6 and IL-17 levels in the BALF [2]	clinical signs and body weight change ([3]; 8 mg/kg/day group, inhalation 7 days, preliminary)	Hematological and biochemical parameters ([3]; 8 mg/kg/day vs vehicle, preliminary)	organ weights, necropsy and histopathology ([3]; 8 mg/kg/day, preliminary)	NOAEL relative to proposed initial clinical dose (300 μg) based on body surface areas ([3]; rat NOAEL 48 mg/m^2/day vs 222 μg/m^2/day)	no observed adverse effect level (NOAEL), body surface ([3]; rats, inhalation, 7 consecutive days) [mg/m^2/day]	pathological alterations after 7-day recovery period ([3]; satellite group, 72 mg/kg/day for 7 days, sacrificed Day 14)	dose proportionality of Cmax and AUC [4]	efflux transporter substrate [5]
CCCC1O[C@@H]2C[C@H]3[C@@H]4CCC5=CC(=O)C=C[C@]5(C)[C@H]4[C@@H](O)C[C@]3(C)[C@]2(C(=O)CO)O1 (stereo partly drawn) [BUD, budesonide]	inhibited weight increase	–	–	–	–	–	–	–	–	–	–	–	–	–
CCCCCC(=O)O[C@]1(C(C)=O)CC[C@H]2[C@@H]3CCC4=CC(=O)CC[C@]4(C)[C@H]3CC[C@@]21C [Solution 17-HPC, 17-[(1-Oxohexyl)oxyl]-pregn-4-ene-3,20-dione]	no difference in weight increase between the 17-HPC groups and the model group	decreased in the other 17-HPC groups and BUD groups in a dose-dependent manner	attenuated in the 17-HPC groups	reduced the percentage of neutrophils in rat BALF	improved FEV0.2/FVC % in a dose-dependent manner	can downregulate TNF-α, IL-1β, IL-6 and IL-17 levels in the BALF	no clinical signs and body weight change were observed	comparable between the animals treated with vehicle and 17-HPC at 8 mg/kg/day	Significant changes in organ weights, necropsy and histopathology were not recorded	approximately 216 times	48	no remarkable pathological alterations in any animals from the satellite group	generally greater than dose proportional	substrate of ABCB1 efflux transporters
